# Experimental data reported in paper PMC7297817, “Pharmacological Characterization of a Betaine/GABA Transporter 1 (BGT1) Inhibitor Displaying an Unusual Biphasic Inhibition Profile and Anti-seizure Effects” (Neurochemical Research, 2020).
# “Also recorded” adds a separate entry of the source. Read-outs that look alike come from different tables or passages of the source.
# Assays:
# SERT = target: T1, SERT (Homo sapiens, UniProt P31645); test: NIMH PDSP radioligand binding, SERT; details: radioligand [3H]citalopram, n=4
# T1 construct: purchased NIMH Psychoactive Drug Screening Program (PDSP)
# mBGT1 = target: T2, mBGT1 (Mus musculus, UniProt P31651); test: [3H]GABA uptake at mBGT1 stably expressed in HEK-293 cells; type: cell-based
# T2 construct: expressed in transfected cells
# T2 sequence (P31651 1-614): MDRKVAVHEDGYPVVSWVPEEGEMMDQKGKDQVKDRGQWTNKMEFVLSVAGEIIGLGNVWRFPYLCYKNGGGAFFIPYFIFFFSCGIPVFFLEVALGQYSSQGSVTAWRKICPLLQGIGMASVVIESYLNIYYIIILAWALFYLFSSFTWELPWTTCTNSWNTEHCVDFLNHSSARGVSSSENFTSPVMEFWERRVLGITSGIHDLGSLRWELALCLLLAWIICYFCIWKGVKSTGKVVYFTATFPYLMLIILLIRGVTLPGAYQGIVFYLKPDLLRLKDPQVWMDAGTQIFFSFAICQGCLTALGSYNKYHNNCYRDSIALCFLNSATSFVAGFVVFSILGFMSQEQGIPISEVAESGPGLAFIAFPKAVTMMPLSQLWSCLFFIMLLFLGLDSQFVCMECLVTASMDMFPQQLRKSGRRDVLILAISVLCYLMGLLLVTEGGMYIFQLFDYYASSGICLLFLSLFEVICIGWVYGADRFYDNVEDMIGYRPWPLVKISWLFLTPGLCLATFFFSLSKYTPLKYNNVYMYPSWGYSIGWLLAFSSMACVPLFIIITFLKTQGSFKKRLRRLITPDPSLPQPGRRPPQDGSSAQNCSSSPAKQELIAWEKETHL
# Description: (§1) The HEK-293 and Flp-In CHO cell lines stably expressing mouse (m) and human (h) GATs, respectively, have been described previously and were cultured accordingly. The tsA201 cell line was used for transient expression while the MDCK II cell line express BGT1 endogenously. Both cell lines were cultured as described. tsA201 cells were transfected with DNA constructs (8 μg per 10 cm dish if not otherwise mentioned) using 40 μL PolyFect transfection reagent according to the manufacturer’s protocol (Qiagen, Venlo, Netherlands). The DNA constructs encoding hBGT1, hGAT1-3 [36], the mutated constructs hBGT1 Q299 and hGAT3 L314Q described previously, and hBGT Y453A were synthesized and sequence validated by Genscript (NJ, USA).
# (§2) The [^3H]GABA competition uptake assay was performed as previously described. A minor change, however, was introduced for uptake in MDCK II cells, in which 100 nM [^3H]GABA was used for a 15 min incubation period at 37 °C instead of 30 nM [^3H]GABA and 3 min incubation. Studies related to the inhibition curves with GABA and BPDBA at hBGT1 were obtained both with and without the presence of 10 μM ATP during the [^3H]GABA uptake assay.
# (§3) The [^3H]GABA uptake data was normalized to the percentage of total uptake in the individual experiments in the presence of the lowest compound concentration or no compound present. Data presented is the pooled data of at least three independent experiments with three technical replicates. Concentration–response curves (CRCs) were fitted with GraphPad Prism (version 8.2.1, Yosemite, GraphPad Software, San Diego, CA, USA) by non-linear regression to the sigmoidal concentration response model: Y=Bottom+(Top-Bottom)/1+10^LogIC50-X∗nH where Top is the Top plateau, Bottom is the Bottom plateau, X is the logarithm of the concentration of the compound, LogIC50 is the concentration giving a response halfway between Top and Bottom,and nH is the Hill slope.
# (§4) The best fit for CRCs obtained with the [^3H]GABA uptake assay was identified by the extra-sum-of-squares F test (for convenience referred to as F test).
# 5-HT2A = target: T3, 5-HT2A (Homo sapiens, UniProt P28223); test: NIMH PDSP radioligand binding, 5-HT2A; details: radioligand [3H]ketanserin, n=4
# T3 construct: purchased NIMH Psychoactive Drug Screening Program (PDSP)
# Alpha2A = target: T4, Alpha2A (Homo sapiens, UniProt P08913); test: NIMH PDSP radioligand binding, Alpha2A; details: radioligand [3H]rauwolscine, n=4
# T4 construct: purchased NIMH Psychoactive Drug Screening Program (PDSP)
# NET = target: T5, NET (Homo sapiens, UniProt P23975); test: NIMH PDSP radioligand binding, NET; details: radioligand [3H]nisoxetine, n=4
# T5 construct: purchased NIMH Psychoactive Drug Screening Program (PDSP)
# hGAT1 = target: T6, hGAT1 (Homo sapiens, UniProt P30531); test: [3H]GABA uptake at hGAT1 stably expressed in CHO cells; type: cell-based; details: for IC50: CHO
# T6 construct: expressed in transfected cells
# Description: as §1, §2, §3, §4
# Sigma2 = test: NIMH PDSP radioligand binding, Sigma2; details: 10 μM; radioligand [3H]DTG; n=4
# Description: IC50 values in μM (Ki μM)^a. The targets in bold were inhibited by >35% at 10 μM.
# [1] = test system: tsA201 cells transiently expressing hBGT1; test: Fluo-4 Ca2+-assay in tsA201 cells transiently expressing hBGT1; type: cell-based, human; details: within the 3 min timeframe; blocked by BAPTA/AM
# Description: Emission was recorded for 20 s. before adding the compounds (at 4 × concentrations) to the HBSS-HEPES buffer to determine the baseline. […] Data presented is the pooled data of at least three independent experiments with three technical replicates. Changes in fluorescence units (ΔFU) were determined as the maximum fluorescent signal within the 190 s minus the average of the baseline.
# canine BGT1 = target: T7, canine BGT1 (Canis lupus familiaris, UniProt P27799); test: [3H]GABA uptake at canine BGT1 endogenously expressed in MDCK II cells; type: cell-based
# T7 construct: the MDCK II cell line express BGT1 endogenously; endogenous in cells; host or cells: MDCK II
# T7 sequence (P27799 1-614): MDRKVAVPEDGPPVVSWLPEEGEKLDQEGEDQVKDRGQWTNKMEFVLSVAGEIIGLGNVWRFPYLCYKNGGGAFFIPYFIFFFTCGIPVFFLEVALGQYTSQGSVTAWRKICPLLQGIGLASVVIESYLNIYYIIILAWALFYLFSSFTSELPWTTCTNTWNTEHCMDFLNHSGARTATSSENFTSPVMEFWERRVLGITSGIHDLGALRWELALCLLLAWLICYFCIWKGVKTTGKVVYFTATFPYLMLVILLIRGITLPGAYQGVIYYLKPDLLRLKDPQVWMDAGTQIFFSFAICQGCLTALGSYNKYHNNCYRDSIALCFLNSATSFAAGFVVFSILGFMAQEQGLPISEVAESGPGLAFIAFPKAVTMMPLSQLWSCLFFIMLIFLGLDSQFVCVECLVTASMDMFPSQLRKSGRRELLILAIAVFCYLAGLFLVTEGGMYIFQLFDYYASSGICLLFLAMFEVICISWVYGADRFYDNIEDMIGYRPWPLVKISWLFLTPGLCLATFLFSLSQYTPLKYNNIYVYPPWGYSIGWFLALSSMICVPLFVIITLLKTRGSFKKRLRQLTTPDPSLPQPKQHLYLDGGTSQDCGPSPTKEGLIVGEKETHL
# Description: as §1, §2, §3, §4
# T6 sequence (P30531 whole entry): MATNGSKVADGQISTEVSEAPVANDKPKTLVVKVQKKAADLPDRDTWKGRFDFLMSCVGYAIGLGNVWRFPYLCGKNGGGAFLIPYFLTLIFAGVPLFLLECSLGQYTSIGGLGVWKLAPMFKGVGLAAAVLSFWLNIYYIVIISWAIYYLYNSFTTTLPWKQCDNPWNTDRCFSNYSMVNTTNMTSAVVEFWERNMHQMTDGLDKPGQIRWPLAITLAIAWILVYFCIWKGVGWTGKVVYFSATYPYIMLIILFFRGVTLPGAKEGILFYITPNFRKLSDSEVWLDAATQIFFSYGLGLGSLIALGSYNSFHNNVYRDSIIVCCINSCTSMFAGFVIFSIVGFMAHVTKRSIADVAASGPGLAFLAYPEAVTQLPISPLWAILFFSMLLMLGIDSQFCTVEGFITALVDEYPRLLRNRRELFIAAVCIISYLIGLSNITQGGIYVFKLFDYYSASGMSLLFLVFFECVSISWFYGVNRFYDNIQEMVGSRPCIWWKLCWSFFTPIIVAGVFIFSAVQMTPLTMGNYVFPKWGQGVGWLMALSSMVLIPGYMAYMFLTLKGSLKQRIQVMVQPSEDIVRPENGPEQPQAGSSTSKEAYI
# T4 sequence (P08913 whole entry): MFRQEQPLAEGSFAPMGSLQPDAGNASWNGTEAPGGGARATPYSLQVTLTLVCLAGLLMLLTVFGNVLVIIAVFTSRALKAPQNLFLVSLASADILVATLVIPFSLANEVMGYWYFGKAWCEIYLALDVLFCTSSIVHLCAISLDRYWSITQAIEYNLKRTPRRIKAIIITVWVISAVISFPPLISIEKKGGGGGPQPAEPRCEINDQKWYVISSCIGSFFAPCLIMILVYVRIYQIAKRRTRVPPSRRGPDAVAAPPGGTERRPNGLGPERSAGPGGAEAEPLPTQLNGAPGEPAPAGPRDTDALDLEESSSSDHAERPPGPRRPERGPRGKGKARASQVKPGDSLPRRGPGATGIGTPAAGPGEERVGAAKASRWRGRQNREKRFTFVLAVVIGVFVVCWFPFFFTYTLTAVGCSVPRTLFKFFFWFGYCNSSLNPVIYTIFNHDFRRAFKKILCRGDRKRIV
# T3 sequence (P28223 whole entry): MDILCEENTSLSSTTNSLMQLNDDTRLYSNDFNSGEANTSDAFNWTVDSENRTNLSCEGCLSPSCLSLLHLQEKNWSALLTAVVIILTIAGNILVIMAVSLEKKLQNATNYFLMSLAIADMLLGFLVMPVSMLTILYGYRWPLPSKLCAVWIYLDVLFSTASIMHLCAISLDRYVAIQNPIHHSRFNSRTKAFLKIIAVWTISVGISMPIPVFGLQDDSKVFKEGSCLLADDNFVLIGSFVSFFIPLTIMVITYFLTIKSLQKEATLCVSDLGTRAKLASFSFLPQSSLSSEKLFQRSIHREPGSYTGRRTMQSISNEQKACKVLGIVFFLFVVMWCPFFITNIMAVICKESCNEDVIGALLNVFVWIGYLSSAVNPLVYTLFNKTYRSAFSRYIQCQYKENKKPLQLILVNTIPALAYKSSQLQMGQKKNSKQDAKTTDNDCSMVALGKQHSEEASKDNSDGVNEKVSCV
# T5 sequence (P23975 whole entry): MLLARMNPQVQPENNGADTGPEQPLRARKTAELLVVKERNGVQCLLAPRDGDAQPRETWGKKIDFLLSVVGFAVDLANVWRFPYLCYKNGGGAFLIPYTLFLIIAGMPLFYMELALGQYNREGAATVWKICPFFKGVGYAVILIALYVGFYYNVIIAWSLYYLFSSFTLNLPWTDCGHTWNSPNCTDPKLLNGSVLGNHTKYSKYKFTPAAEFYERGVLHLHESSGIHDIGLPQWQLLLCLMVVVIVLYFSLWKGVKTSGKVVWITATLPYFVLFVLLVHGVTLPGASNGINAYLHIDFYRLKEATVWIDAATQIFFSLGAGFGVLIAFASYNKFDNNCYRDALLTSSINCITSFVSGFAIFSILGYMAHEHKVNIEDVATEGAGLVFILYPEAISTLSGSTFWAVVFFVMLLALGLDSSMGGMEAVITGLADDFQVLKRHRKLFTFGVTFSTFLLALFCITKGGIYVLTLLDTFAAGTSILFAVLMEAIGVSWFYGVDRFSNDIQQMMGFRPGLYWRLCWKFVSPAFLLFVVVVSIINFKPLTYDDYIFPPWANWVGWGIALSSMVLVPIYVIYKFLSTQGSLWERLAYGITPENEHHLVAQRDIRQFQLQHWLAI
# T1 sequence (P31645 whole entry): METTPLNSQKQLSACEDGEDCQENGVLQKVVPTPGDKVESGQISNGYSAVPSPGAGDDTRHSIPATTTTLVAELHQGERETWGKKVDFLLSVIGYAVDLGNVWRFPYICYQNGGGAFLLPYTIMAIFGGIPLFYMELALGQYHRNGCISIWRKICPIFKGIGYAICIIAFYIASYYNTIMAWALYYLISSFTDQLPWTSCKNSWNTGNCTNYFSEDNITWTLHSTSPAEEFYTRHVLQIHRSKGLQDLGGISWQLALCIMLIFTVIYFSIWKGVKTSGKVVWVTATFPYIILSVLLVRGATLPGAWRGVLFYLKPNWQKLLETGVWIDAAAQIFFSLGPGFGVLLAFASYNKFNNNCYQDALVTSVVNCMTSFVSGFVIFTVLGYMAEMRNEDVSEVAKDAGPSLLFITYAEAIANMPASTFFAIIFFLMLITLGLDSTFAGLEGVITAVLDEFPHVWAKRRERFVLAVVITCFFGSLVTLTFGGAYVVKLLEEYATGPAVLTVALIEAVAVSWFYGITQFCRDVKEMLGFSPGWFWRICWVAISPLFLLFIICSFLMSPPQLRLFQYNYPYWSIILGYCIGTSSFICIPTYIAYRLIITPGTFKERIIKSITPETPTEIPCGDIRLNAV
structure (smiles),measurement,setting,value
"Cc1ccsc1C(=CCCN(C)[C@H]1CCCC[C@H]1C(=O)O)c1sccc1C [SBV2-114, (1R,2S)-2-((4,4-bis(3-methylthiophen-2-yl)but-3-en-yl)(methyl)amino)cyclohexanecarboxylic acid]",inhibition at 10 µM,SERT,18.8%
same,IC50,mBGT1,3.8 µM
same,% inhibition (Frac value) at the low IC50,mBGT1; biphasic fit,45%
same,Fit,"mBGT1; preferred model, extra-sum-of-squares F test, N=5",Biphasic
same,IC50,"mBGT1; read-out: IC50, low affinity component (high IC50), biphasic fit, 30 nM [3H]GABA, 3 min, HEK-293",408 µM
same,inhibition at 10 µM,5-HT2A,20%
same,inhibition at 10 µM,Alpha2A,42.8%
same,inhibition at 10 µM,NET,0.1%
same,IC50,"hGAT1; ambiguous fit, N=2",566 µM
same,IC50,"hGAT1; monophasic fit, N=1",476 µM
same,Fit,hGAT1; preferred model per experiment,Ambiguous; also recorded: Monophasic
same,% inhibition,Sigma2,48.3%
same,intracellular Ca2+ increase,[1],triggered an intracellular Ca^2+ increase at 200 μM and 500 μM
same,Frac,canine BGT1,0.38
same,IC50,"canine BGT1; IC50, high affinity component, biphasic fit, 100 nM [3H]GABA, 15 min",0.1 µM
same,IC50,"canine BGT1; pIC50 ± S.E.M., high affinity component, biphasic fit, 100 nM [3H]GABA, 15 min",0.105 µM
same,IC50,"canine BGT1; read-out: IC50, low affinity component, biphasic fit, 100 nM [3H]GABA, 15 min",251 µM
